{
  "source": "patent US20210059282A1",
  "about": "“Process for Spray Drying Fucosyllactose Solutions and Related Product Compositions” (DUPONT NUTRITION BIOSCIENCES APS, priority 2018, published 2021)",
  "test": "Solubility in water at room temperature and pressure (general statement)",
  "assay_type": "physicochemical",
  "data": [
    {"smiles": "CC1OC(OC2C(OC3C(CO)OC(O)C(O)C3O)OC(CO)C(O)C2O)C(O)C(O)C1O", "note": "(stereo not shown) [2′-FL, 2′-fucosyllactose]", "values": [
      {"measurement": "Solubility in water", "value": "soluble in water"}
    ]}
  ]
}
